37 compounds from US8481738B2, “Gonadotropin-releasing hormone receptor antagonists and methods relating thereto” (Neurocrine Biosciences, Inc., priority 2007, dated 2013) can be followed below.

One may read the Ki as the equilibrium dissociation constant of an inhibitor or competing ligand from its target.

The target of this assay is T1, human GnRH receptor (Homo sapiens, UniProt P30968).
T1 construct: expressed in transfected cells; host or cells: RBL cells, stably transfected (in general)
T1 sequence (P30968 1-328): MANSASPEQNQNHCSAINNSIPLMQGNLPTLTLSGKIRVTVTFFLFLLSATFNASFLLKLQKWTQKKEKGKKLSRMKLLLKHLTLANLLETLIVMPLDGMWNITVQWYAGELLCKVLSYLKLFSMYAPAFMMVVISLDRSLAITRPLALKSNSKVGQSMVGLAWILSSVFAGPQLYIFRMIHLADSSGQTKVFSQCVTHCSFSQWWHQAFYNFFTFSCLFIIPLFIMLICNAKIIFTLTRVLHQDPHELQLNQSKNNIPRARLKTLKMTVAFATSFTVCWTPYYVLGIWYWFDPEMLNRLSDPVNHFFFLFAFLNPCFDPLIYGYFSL
As to the kind of experiment: Peptide competition radioligand binding displacement assay, human GnRH receptor membranes. The settings on record: one or more of the peptide competition human receptor binding assays. As to the method: cDNA's of human, rhesus macaque, rabbit, dog and rat GnRH receptors are cloned into pcDNA3.1 (+) (Invitrogen). Full length sequences of all receptors are confirmed by DNA sequencing. HEK 293, CHO, COS-7, or rat basophilic leukemia (RBL) cells are stably transfected with human, rat, or macaque GnRH receptors and high expressing single cell clones (Bmax≧0.4 pMol/mg membrane protein) are isolated and maintained in Dulbecco's Modified Eagles Medium (DMEM) with following supplements: 10 mM HEPES; 2 mM L-glutamine; 1 mM Sodium Pyruvate; 50 U/mL penicillin, 50 μg/mL streptomycin; 10% Heat-inactivated Fetal Bovine Serum and 200 μg/mL Geneticin (G-418-Sulfate). Non-essential amino acids (0.1 mM) (Irvine Scientific; Santa Ana, Calif.) are included in the RBL cell media.
In general, initial peptide radioligand binding assays are carried out using membranes from stably transfected RBL cells. RBL stable clones are found to more consistently express high levels of GnRH receptor and are therefore used for subsequent binding studies as well as Ca^++ flux and inositol phosphate accumulation assays. Transiently transfected COS-7 cells are used for preparation of membranes containing GnRH receptors from multiple species (as well as those of mutant receptors for other studies) because of the convenience for rapidly analyzing multiple receptors.
HEK293 cells stably transfected with the human GnRH receptor are grown for two days after achieving confluence then are harvested by striking tissue culture flasks against a firm surface. Cells are collected by centrifugation at 1000 g for 5 minutes. Cell pellets are resuspended in 5% sucrose and homogenized using a polytron homogenizer for two 15 second homogenization steps. Cell homogenates are then centrifuged for 5 minutes at 3000 g to remove nuclei and the supernatant subsequently centrifuged for 30 minutes at 44,000 g to collect the membrane fraction. The membrane pellet is resuspended in GnRH binding buffer (10 mM HEPES, pH 7.5, 150 mM NaCl and 0.1% BSA) and aliquots immediately snap-frozen in liquid nitrogen and stored at −80° C. Protein content of the membrane suspension is determined using the Bio-Rad protein assay kit (Bio-Rad).
RBL cells stably transfected with the human GnRH receptor are grown to 80% confluency prior to harvesting. The cells are incubated at 37° C. for 10 min in 0.5 mM EDTA/PBS (Ca^++, Mg^++ free), and are dislodged from the plate by gentle rapping of the flasks. Cells are collected and pelleted by centrifugation at 1000 g for 5 minutes. Cell pellets are resuspended in buffer (DPBS supplemented with 10 mM MgCl2, 2 mM EGTA, pH=7.4), and cell lysis is performed using a pressure cell and applying N2 at a pressure of 900 psi for 30 min at 4° C. Unbroken cells and larger debris were removed by centrifugation at 1200 g for 10 min at 4° C. The cell membrane supernatant is then centrifuged at 45,000 g and the resulting membrane pellet is resuspended in assay buffer and homogenized on ice using a tissue homogenizer. Protein concentrations are determined using the Coomassie Plus Protein Reagent kit. Membranes are aliquoted and stored at −80° C. until ready for use.
COS-7 cells transiently transfected with GnRH receptors from different species (human, macaque, dog, rabbit, rat) or mutant GnRH receptors are prepared by bulk electroporation. COS-7 cells are obtained from American Type Cell Culture (Manassas, Va.) and are maintained in Dulbeccos's modified Eagle's medium (DMEM) (MediaTech Inc., Herndon, Va.) containing 10% fetal bovine serum, 10 mM HEPES, 2 mM L-glutamine, 1 mM sodium pyruvate, 50 U/mL penicillin, 50 μg/mL streptomycin. COS-7 cells are seeded in 500 cm^2 tissue culture plates and grown to confluency prior to cell transfection. […]

The compound `CN(C(=O)c1ccc(Cl)c(-c2cnc(C(F)(F)F)cc2C#N)c1)c1ccccc1OCCc1n[nH]c(=O)o1` [31-1, 4-Chloro-3-(4-cyano-6-trifluoromethyl-pyridin-3-yl)-N-methyl-N-{2-[2-(5-oxo-4,5-dihydro-[1,3,4]oxadiazol-2-yl)ethoxy]-phenyl}-benzamide] gave an inhibitory constant (Ki) of at most 100 nM.

Compound `COc1ccccc1N(C)C(=O)c1ccc(Cl)c(-c2nc3ccccc3cc2C=O)c1` [2-48] gave a Ki of at most 100 nM.

Compound `Cc1cccc(O)c1N(C)C(=O)c1ccc(Cl)c(-c2cnc(C(F)(F)F)cc2C#N)c1` [8-7] returned a Ki of at most 100 nM.

`CN(C(=O)c1cc(-c2cnc(C(F)(F)F)cc2C#N)c(Cl)cc1OCCCC(=O)O)c1ccccn1` [34-18] yielded a Ki of at most 100 nM.

`COc1cc(Cl)ccc1N(C)C(=O)c1cc(-c2cnc(C(F)(F)F)cc2C#N)c(Cl)cc1OCCCC(=O)O` [34-2] yielded an inhibition constant Ki of at most 100 nM.

For the compound `COc1ccccc1N(C)C(=O)c1ccc(Cl)c(-c2c(Cl)cc(Cl)c[n+]2[O-])c1` [27-1, 4-Chloro-3-(3,5-dichloro-1-oxy-pyridin-2-yl)-N-(2-methoxy-phenyl)-N-methyl-benzamide], the inhibitory constant (Ki) was at most 100 nM.

`Cc1cccc(C)c1N(C)C(=O)c1cc(-c2nc3ccccc3cc2C#N)c(Cl)cc1OCCCCO` [21-6] showed a Ki of at most 100 nM.

Consider `Cc1cccc(C)c1N(C)C(=O)c1ccc(Cl)c(-n2c(C)cc(C(F)(F)F)nc2=O)c1` [30-11], for which the inhibitory constant (Ki) was at most 100 nM.

`CN(C(=O)c1ccc(Cl)c(-c2cnc(C(F)(F)F)cc2C#N)c1)c1ccccc1OCCc1nnn[nH]1` [45-1, 4-Chloro-3-(4-cyano-6-trifluoromethyl-pyridin-3-yl)-N-methyl-N-{2-[2-(1H-tetrazol-5-yl)-ethoxy]-phenyl}-benzamide]: the inhibitory constant (Ki) was at most 100 nM.

`CNCCOc1cc(Cl)c(-c2cnc(C(F)(F)F)cc2C#N)cc1C(=O)N(C)c1ccccc1OC` [42-17] had a Ki of at most 100 nM.

The compound `COc1ccccc1N(C)C(=O)c1cc(-c2cnc(C(F)(F)F)cc2C#N)c(Cl)cc1OCCCOc1ccccn1` [42-15] returned a Ki of at most 100 nM.

Take `CN(CC1CC1)C(=O)c1cc(-c2cnc(C(F)(F)F)cc2C#N)c(Cl)cc1OCCCC(=O)O` [34-25]: the inhibition constant (Ki) is at most 100 nM.

On to `COC(=O)c1ccccc1N(C)C(=O)c1cc(-c2cnc(C(F)(F)F)cc2C#N)c(Cl)cc1OCCCC(=O)O` [34-10], for which the Ki was at most 100 nM.

Compound `CN(C(=O)c1ccc(Cl)c(-c2nc3c(F)cccc3cc2C#N)c1)c1ccccc1OCCCC(=O)O` [33-2] came in with a Ki of at most 100 nM.

For `COc1cccc(C)c1N(C)C(=O)c1cc(-c2cnc(C(F)(F)F)cc2C#N)c(Cl)cc1OCCO` [21-7], the Ki was at most 100 nM.

In turn, `CN(C(=O)c1ccc(Cl)c(-c2cnc(C(F)(F)F)cc2C#N)c1)c1ccccc1OCCC(=O)OCOC(=O)C(C)(C)C` [36-1, 2,2-Dimethyl-propionic acid 3-(2-{[4-chloro-3-(4-cyano-6-trifluoromethyl-pyridin-3-yl)-benzoyl]-methyl-amino}-phenoxy)-propionyloxymethyl ester] returned a Ki of at most 100 nM.

The compound `COc1cc(Cl)c(-c2cnc(C(F)(F)F)cc2C#N)cc1C(=O)N(C)c1c(C)cccc1OC` [39-10] came in with a Ki of at most 100 nM.

With `COc1ccccc1N(C)C(=O)c1ccc(Cl)c(-c2ncnc3scc(C)c23)c1` [2-50], the Ki is at most 100 nM.

Turning to `CN(C(=O)c1ccc(Cl)c(-c2nc3c(F)c(F)c(F)c(F)c3cc2C#N)c1)c1ccccc1OCCCC(=O)O` [33-3], the Ki is at most 100 nM.

`CN(C(=O)c1ccc(Cl)c(-c2ncc(C(F)(F)F)cc2Cl)c1)c1ccccc1F` [2-76] had a Ki of at most 100 nM.

In turn, `COc1ccccc1N(C)C(=O)c1ccc(Cl)c(-c2ccc(Cl)nc2Cl)c1` [2-6] came in with a Ki of at most 100 nM.

In turn, `COc1cccc(N(C)C(=O)c2cc(-c3cnc(C(F)(F)F)cc3C#N)c(Cl)cc2OC)n1` [39-23] returned a Ki of at most 100 nM.

`Cc1cccc(OCCCO)c1N(C)C(=O)c1ccc(Cl)c(-c2ccc(C(F)(F)F)cc2C#N)c1` [10-1, 4-Chloro-3-(2-cyano-4-trifluoromethyl-phenyl)-N-[2-(3-hydroxy-propoxy)-6-methyl-phenyl]-N-methyl-benzamide] came in with an inhibition constant Ki of at most 100 nM.

`COc1ccccc1N(C)C(=O)c1cc(-c2cnc(C(F)(F)F)cc2C#N)c(Cl)cc1OCCCC(=O)O` [34-1, 4-{5-chloro-4-(4-cyano-6-trifluoromethyl-pyridin-3-yl)-2-[(2-methoxy-phenyl)-methyl-carbamoyl]-phenoxy}-butyric acid] had an inhibition constant (Ki) of at most 100 nM.

Regarding `CN(C(=O)c1ccc(Cl)c(-c2ccc(Cl)cc2C#N)c1)c1ccccc1OCCCC(=O)O` [5-6], the Ki was at most 100 nM.

The compound `COc1ccccc1N(C)C(=O)c1cc(-c2cnc(C(F)(F)F)cc2C#N)c(Cl)cc1OCCN1CCC[C@@H]1C(=O)O` [49-2] gave an inhibition constant Ki of at most 100 nM.

`Cc1cc(Cl)ncc1-c1cc(C(=O)N(C)c2ccccc2OCC(N)=O)ccc1Cl` [6-1, N-(2-Carbamoylmethoxy-phenyl)-4-chloro-3-(6-chloro-4-methyl-pyridin-3-yl)-N-methyl-benzamide] gave a Ki of at most 100 nM.

Regarding `COc1ccccc1N(C)C(=O)c1cc(-c2cnc(C(F)(F)F)cc2C#N)c(Cl)cc1OCCCn1ccnc1` [42-11], the Ki was at most 100 nM.

Compound `COc1cccc(C)c1N(C)C(=O)c1cc(-c2cnc(C(F)(F)F)cc2C#N)c(Cl)cc1OCCCCO` [21-1, 4-Chloro-5-(4-cyano-6-trifluoromethyl-pyridin-3-yl)-2-(4-hydroxy-butoxy)-N-(2-methoxy-6-methyl-phenyl)-N-methyl-benzamide] gave a Ki of at most 100 nM.

For `Cc1cc(C(F)(F)F)ncc1-c1cc(C(=O)N(C)c2ccccc2CCCC(=O)O)ccc1Cl` [14-2], the inhibition constant Ki was at most 100 nM.

`Cc1cccc(OCCCC(=O)O)c1N(C)C(=O)c1ccc(Cl)c(-c2ncc(C(F)(F)F)cc2Cl)c1` [5-3] showed an inhibitory constant (Ki) of at most 100 nM.

The compound `COc1ccccc1N(C)C(=O)c1cc(-c2cnc(C(F)(F)F)cc2C#N)c(Cl)cc1OCCCC(=O)OC(C)OC(=O)OC(C)C` (stereo not shown) [37-4, 4-{5-chloro-4-(4-cyano-6-trifluoromethyl-pyridin-3-yl)-2-[(2-methoxy-phenyl)-methyl-carbamoyl]-phenoxy}-butyric acid 1-isopropoxycarbonyloxy-ethyl ester] came in with a Ki of at most 100 nM.

In the case of `COc1ccccc1N(C)C(=O)c1ccc(Cl)c(-c2ncc(F)cc2F)c1` [2-59], the inhibition constant Ki is at most 100 nM.

For the compound `COC(=O)COc1ccccc1N(C)C(=O)c1ccc(Cl)c(-c2cnc(Cl)cc2C)c1` [3-1, (2-{[4-chloro-3-(6-chloro-4-methyl-pyridin-3-yl)-benzoyl]-methyl-amino}-phenoxy)-acetic acid methyl ester], the Ki was at most 100 nM.

Consider `COc1cc(Cl)c(-c2cnc(C(F)(F)F)cc2C#N)cc1C(=O)N(C)c1cnccc1OC` [39-20], for which the Ki is at most 100 nM.

On to `CC(C)OC(=O)OC(C)OC(=O)CCOc1ccccc1N(C)C(=O)c1ccc(Cl)c(-c2cnc(C(F)(F)F)cc2C#N)c1` (stereo not shown) [37-2, 3-(2-{[4-Chloro-3-(4-cyano-6-trifluoromethyl-pyridin-3-yl)-benzoyl]-methyl-amino}-phenoxy)-propionic acid 1-isopropoxycarbonyloxy-ethyl ester], for which the inhibition constant Ki was at most 100 nM.

For `COc1cccc(CN(C)C(=O)c2cc(-c3cnc(C(F)(F)F)cc3C#N)c(Cl)cc2OC)c1` [39-18], the Ki is at most 100 nM.
